Data: BindingDB's records for doi:10.1021/jm960597m (Division of Warner Lambert, 1997)

Test: Inhibition of [3H]thymidine uptake by Dopamine receptor D2

## c1ccc(N2CCN(CC[C@H]3CC[C@H](c4c[nH]c5ccccc54)CC3)CC2)nc1 [3-{4-[2-(4-Pyridin-2-yl-piperazin-1-yl)-ethyl]-cyclohexyl}-1H-indole]
  EC50: 2.8 nM
